Key:
RD cells [1] = assay: Cytotoxicity assay (CellTiter-Glo 2.0) on RD cells; type: cell-based, Human; conditions: for IC50: Homo sapiens
Procedure, shortened: (§1)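 Compound-treated cells, incubation time varying by line; CellTiter-Glo 2.0 ATP luminescence; relative IC50.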

4T1 cells [2] = assay: Cytotoxicity assay (CellTiter-Glo 2.0) on 4T1 cells; type: cell-based, Mouse; conditions: incubation 2 days; for IC50: Mus musculus, 48 h
Procedure, shortened: as §1

MDA-MB-231 cells [3] = assay: Cytotoxicity assay (CellTiter-Glo 2.0) on MDA-MB-231 cells; type: cell-based, Human; conditions: incubation 3 days; for IC50: Homo sapiens, 72 h
Procedure, shortened: as §1

EoL-1 cells = assay: Cytotoxicity assay (CellTiter-Glo 2.0) on EoL-1 cells; type: cell-based, Human; conditions: incubation 1 day; for IC50: Homo sapiens, EOL1, 24 h
Procedure, shortened: as §1

A549 = assay: Cytotoxicity assay on KRAS mutated A549 cells; type: cell-based, Human; conditions: incubation 2 days
Protocol: (§2) Cytotoxicity assays consist in treating cells with compounds and assessing remaining viability after a defined incubation time, depending on the cell line. CellTiter-Glo® 2.0 reagent allows viability measurement by quantification of ATP present, which is an indicator of metabolically active cells.
(§3) The cancer cell lines were cultivated in their respective growth medium (see tables 6a and 6b). On day 0 of the cytotoxicity assay, the cells were harvested and seeded into a 384-well plate at a defined density in their respective growth medium (see tables 6a and 6b). Compounds to be tested were then added onto the cells and incubated for a defined duration (see tables 6a and 6b). Following incubation, CellTiter-Glo® 2.0 reagent (cat.no. G9241 from Promega) was added into the wells (vol/vol, according to the manufacturer's recommendations), plates were gently shaken and incubated for 10 minutes in the dark at room temperature. Bioluminescence was then measured with a multimode plate reader (Victor Nivo from Perkin Elmer), and cell viability and relative IC50 were determined. Table 6a: Cancer cell characteristics, culture and cytotoxic assay conditions

HCT116 = assay: Cytotoxicity assay on KRAS mutated HCT116 cells; type: cell-based, Human; conditions: incubation 2 days
Protocol: as §2, §3

Mia PaCa-2 = assay: Cytotoxicity assay on KRAS mutated Mia PaCa-2 cells; type: cell-based, Human; conditions: Mia PaCa-2, KRAS mutated, incubation 2 days
Protocol: as §2, §3

SW480 = assay: Cytotoxicity assay on KRAS mutated SW480 cells; type: cell-based, Human; conditions: incubation 2 days
Protocol: as §2, §3

HEC-1A = assay: Cytotoxicity assay on KRAS mutated HEC-1A cells; type: cell-based, Human; conditions: incubation 2 days
Protocol: as §2, §3

PSN1 = assay: Cytotoxicity assay on KRAS mutated PSN1 cells; type: cell-based, Human; conditions: incubation 2 days
Protocol: as §2, §3

RPMI 8226 = assay: Cytotoxicity assay on KRAS mutated RPMI 8226 cells; type: cell-based, Human; conditions: RPMI 8226, KRAS mutated, incubation 2 days
Protocol: as §2, §3

HUVECs = assay: Tube formation assay (anti-angiogenic activity); type: cell-based, human; conditions: incubation 16 to 18 hours; for IC50: Homo sapiens, HUVEC
Procedure, shortened: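 HUVECs plated at 5000 cells/well on reduced growth factor basement membrane matrix, then exposed to compounds for 16 to 18 hours at 37°C. Cells stained with calcein-AM; tube networks imaged by confocal fluorescence microscopy and quantified.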

4T1 cells [4] = assay: Epithelial-mesenchymal transition marker expression by qRT-PCR; type: cell-based, Mouse; design: key: ↗: increased expression; ↘: decreased expression; =: unchanged expression levels; conditions: 24 hours, expression normalized against RPL13
Source text: The epithelial-mesenchymal transition (hereafter "EMT") is a process by which epithelial cells lose their cell polarity and cell-cell adhesion while gaining migratory and invasive properties to become mesenchymal stem cells. EMT is commonly measured by quantifying both epithelial and mesenchymal marker's expression by quantitative reverse-transcription polymerase chain reaction (hereafter "qRT-PCR"). EMT inhibition is observed when epithelial markers are stable or increased while mesenchymal markers are decreased.
4T1 cells were treated with compounds to be tested or DMSO for 24 hours. 4T1 cells were then harvested directly in NucleoZol lysis buffer (cat. no. 740404.200 from Macherey-Nagel), according to the manufacturer's instructions. Total RNA was extracted using the NucleoSpin RNA set for NucleoZol (cat. no. 740406.50 from Macherey-Nagel). The quantity and purity of RNA was determined using a Quickdrop (Molecular Devices). RT-PCR was performed on 500 ng total RNA using iScript gDNA clear cDNA synthesis Kit (cat.no. 1725035 from Biorad). The qPCR was run on a QuantStudio 5 real time thermocycler (Applied Biosystems), with PowerUp SYBR Green Master Mix (cat.no. A25742 from Fisher Scientific) and the primers listed in Table 16.
Expression data of EMT markers have been normalized against expression data of the housekeeping gene RPL13.

MDA-MB-231 cells [5] = assay: Scratch (wound healing) assay, cell migration; type: cell-based, Human; conditions: 24 hours, Figure 1
Protocol: Cell migration is involved in several pathological cancer processes such as tumor invasion, neoangiogenesis and metastasis. Scratch (or wound healing) assay is a method to study two-dimensional cell migration in vitro. It is based on the observation that cells growing in a monolayer migrate to reestablish cell contacts after a mechanical scratch wound.
The MDA-MB-231 cells were seeded into a 24-well plate and grown to confluent density. A scrape was made in each well using a pipette tip. Then, the cells monolayers were incubated for 2 hours with 5 µg/ml mitomycin C to stop cell proliferation. The cells were treated with the compounds to be tested for 24 hours. The cells were stained using CellMask Green actin tracking stain (cat.no. A57246 from Fisher Scientific) at time zero and at endpoint. Pictures were acquired using a fluorescence microscope (IXM from Molecular Device). The scratch area was measured with the ImageJ software. The recovery of the scratch area was calculated as a percentage of the scratch area at time zero.

4T1 cells [6] = assay: Colony forming (clonogenic) assay; type: cell-based, Mouse; conditions: 6 days of treatment, Figure 2
Protocol: Cancer stem cells are characterized by their ability to undergo virtually unlimited divisions. Colony forming assay (or clonogenic assay) is an in vitro assay designed to assess capability of single cells to grow into large colonies through clonal expansion.
4T1 cells were seeded at a density of 500 cells per well of six-well plates in 4T1 medium. Compounds to be tested were added 24 hours after seeding. After 6 days of treatment, the cells were fixed in 4% PFA and stained with 1% aqueous solution of crystal violet. Pictures of the entire wells were acquired, and the area of the positives colonies was evaluated by ImageJ software (Wayne Rasband; NIH).

RD cells [7] = assay: Differentiation of RD cells into myotubes (alpha-actinin staining); type: cell-based, Human; conditions: 7 days, Figure 3
Protocol: RD cells are cancer cells of muscle origin that arose from myogenic precursors that fail to complete muscle differentiation. One strategy to stop their progression is to differentiate them into myotubes.
To allow differentiation, RD cells were seeded at a density of 3500 cells/well in a 384-well plate coated with collagen type I, in DMEM (4,5g/L glucose) with L-Gln (cat.no. 41965-039 from Gibco) supplemented with 5% of knockout serum replacement (cat.no. 10828-028 from Gibco), 1% PenStrep (Gibco), 1% MEM NEAA (Gibco) and 0.1 mM 2-mercaptoethanol (Gibco) (hereafter "K5 medium"). Compounds to be tested were then added onto the cells and incubated for 7 days at 37°C. On day 7, cells were fixed with 4% paraformaldehyde solution and immunostained for α-actinin (cat.no. EA-53 from Sigma, at 1/30000).

Compound | Cytotoxicity (RD cells [1]; 2 day-treatment) | Cytotoxicity (RD cells [1]; 4 day-treatment) | IC50 (RD cells [1]; 48 h, 2 day-treatment) | IC50 (RD cells [1]; 96 h, 4 day-treatment) | IC50 (4T1 cells [2]) | Cytotoxicity (4T1 cells [2]) | IC50 (MDA-MB-231 cells [3]) | Cytotoxicity (MDA-MB-231 cells [3]) | IC50 (EoL-1 cells) | Cytotoxicity (EoL-1 cells) | IC50 (HUVECs) | Angiogenesis inhibition (HUVECs) | Epithelial markers E-cadherin (4T1 cells [4]) | Epithelial markers EpCAM (4T1 cells [4]) | Mesenchymal markers Fibronectin (4T1 cells [4]) | Mesenchymal markers Vimentin (4T1 cells [4]) | migration in the scratch assay (MDA-MB-231 cells [5]) | colony growth (4T1 cells [6]) | other results
CSc1cc(Oc2ccnc3c2OCC(=O)N3)ccc1NC(=O)Nc1cc(C(C)(C)C)no1 [Compound 020, 1-(3-tert-butylisoxazol-5-yl)-3-[2-methylsulfanyl-4-[(3-oxo-4H-pyrido[3,2-b][1,4]oxazin-8-yl)oxy]phenyl]urea] | ++ (50% ≤ cytotoxicity < 85%) | ++ (50% ≤ cytotoxicity < 85%) | 1 to 5 µM | < 1 µM | 1 to 5 µM | +++ (cytotoxicity ≥ 85%) | < 1 µM | ++ (50% ≤ cytotoxicity < 85%) | < 0.001 µM | +++ (cytotoxicity ≥ 85%) | < 0.1 µM | +++ (angiogenesis inhibition ≥ 80%) | ↗ | = | ↘ | ↘ |  |  | IC50 (A549; Homo sapiens, 48 h): < 1 µM; Cytotoxicity (A549): ++ (50% ≤ cytotoxicity < 85%); IC50 (HCT116; Homo sapiens, HCT-116, 48 h): < 1 µM; Cytotoxicity (HCT116): +++ (cytotoxicity ≥ 85%); IC50 (Mia PaCa-2; Homo sapiens, 48 h): < 1 µM; Cytotoxicity (Mia PaCa-2): +++ (cytotoxicity ≥ 85%); IC50 (SW480; Homo sapiens, 48 h): < 1 µM; Cytotoxicity (SW480): ++ (50% ≤ cytotoxicity < 85%); IC50 (HEC-1A; Homo sapiens, 48 h): < 1 µM; Cytotoxicity (HEC-1A): ++ (50% ≤ cytotoxicity < 85%); IC50 (PSN1; Homo sapiens, 48 h): < 1 µM; Cytotoxicity (PSN1): +++ (cytotoxicity ≥ 85%); IC50 (RPMI 8226; Homo sapiens, 48 h): < 1 µM; Cytotoxicity (RPMI 8226): ++ (50% ≤ cytotoxicity < 85%)
CC(C)(C)c1cc(NC(=O)Nc2ccc(Oc3ccnc4c3CCC(=O)N4)cc2C(F)(F)F)n(-c2cncc(F)c2)n1 [Compound 016, 1-[5-tert-butyl-2-(5-fluoro-3-pyridyl)pyrazol-3-yl]-3-[4-[(7-oxo-6,8-dihydro-5H-1,8-naphthyridin-4-yl)oxy]-2-(trifluoromethyl)phenyl]urea] | ++ (50% ≤ cytotoxicity < 85%) | ++ (50% ≤ cytotoxicity < 85%) | 1 to 5 µM | 5 to 10 µM | < 1 µM | +++ (cytotoxicity ≥ 85%) | 1 to 5 µM | ++ (50% ≤ cytotoxicity < 85%) | 0.01 to 0.1 µM | +++ (cytotoxicity ≥ 85%) | < 0.1 µM | +++ (angiogenesis inhibition ≥ 80%) | ↗ | ↗ | ↘ | ↘ | inhibition of their migration | inhibition of colony growth | 
Cc1ccc(-n2nc(C(C)(C)C)cc2NC(=O)Nc2ccc(Oc3ccnc4c3CCC(=O)N4)cc2C(F)(F)F)cn1 [Compound 017, 1-[5-tert-butyl-2-(6-methyl-3-pyridyl)pyrazol-3-yl]-3-[4-[(7-oxo-6,8-dihydro-5H-1,8-naphthyridin-4-yl)oxy]-2-(trifluoromethyl)phenyl]urea] | ++ (50% ≤ cytotoxicity < 85%) | +++ (cytotoxicity ≥ 85%) | 1 to 5 µM | 1 to 5 µM | < 1 µM | +++ (cytotoxicity ≥ 85%) | 1 to 5 µM | ++ (50% ≤ cytotoxicity < 85%) | 0.001 to 0.01 µM | ++ (50% ≤ cytotoxicity < 85%) | < 0.1 µM | +++ (angiogenesis inhibition ≥ 80%) | ↗ | ↗ | ↘ | ↘ | inhibition of their migration | inhibition of colony growth | 
CSc1cc(Oc2ccnc3c2OCC(=O)N3)ccc1NC(=O)Nc1cc(C(C)(C)C)nn1-c1ccccc1 [Compound 006, 1-(3-(tert-butyl)-1-phenyl-1H-pyrazol-5-yl)-3-(2-(methylthio)-4-((3-oxo-3,4-dihydro-2H-pyrido[3,2-b][1,4]oxazin-8-yl)oxy)phenyl)urea] | ++ (50% ≤ cytotoxicity < 85%) | ++ (50% ≤ cytotoxicity < 85%) | 1 to 5 µM | 1 to 5 µM | 1 to 5 µM | +++ (cytotoxicity ≥ 85%) | 1 to 5 µM | ++ (50% ≤ cytotoxicity < 85%) | 0.01 to 0.1 µM | +++ (cytotoxicity ≥ 85%) | 0.1 to 0.5 µM | +++ (angiogenesis inhibition ≥ 80%) | ↗ | ↗ | ↘ | ↘ | inhibition of their migration | inhibition of colony growth | differentiation into myotubes (RD cells [7]): dose-dependent differentiation into myotubes
